Assay results published in ChEMBL document CHEMBL1133231, “Syntheses and binding affinities of 6-nitroquipazine analogues for serotonin transporter. Part 1” (Bioorg Med Chem Lett, 2000).

target: Sodium-dependent serotonin transporter (Rattus norvegicus, UniProt P31652); assay: Inhibition of [3H]citalopram binding to Serotonin transporter of rat cerebral cortex; format: tissue-based
Sequence (P31652 whole entry): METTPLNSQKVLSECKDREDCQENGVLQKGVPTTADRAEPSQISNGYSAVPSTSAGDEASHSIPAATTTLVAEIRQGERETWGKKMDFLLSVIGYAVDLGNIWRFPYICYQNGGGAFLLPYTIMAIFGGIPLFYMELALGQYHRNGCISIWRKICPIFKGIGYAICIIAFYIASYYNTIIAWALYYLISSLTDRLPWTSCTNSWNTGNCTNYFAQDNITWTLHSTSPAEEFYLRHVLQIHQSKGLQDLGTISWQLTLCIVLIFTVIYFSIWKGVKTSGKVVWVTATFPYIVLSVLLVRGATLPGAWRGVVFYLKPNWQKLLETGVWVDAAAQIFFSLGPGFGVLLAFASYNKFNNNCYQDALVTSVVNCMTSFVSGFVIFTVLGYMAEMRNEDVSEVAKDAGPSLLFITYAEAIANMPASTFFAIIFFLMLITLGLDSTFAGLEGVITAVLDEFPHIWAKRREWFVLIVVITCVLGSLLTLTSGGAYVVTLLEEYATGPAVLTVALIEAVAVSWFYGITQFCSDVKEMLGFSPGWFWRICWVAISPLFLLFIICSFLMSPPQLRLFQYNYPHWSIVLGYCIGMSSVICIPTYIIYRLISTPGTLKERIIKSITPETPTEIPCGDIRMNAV

Row | Structure (SMILES) | Ki [nM]
1 | O=[N+]([O-])c1cc([N+](=O)[O-])c2nc(N3CCNCC3)ccc2c1 | 313
2 | NCCNc1ccc2cc([N+](=O)[O-])ccc2n1 | 164
3 | c1ccc2nc(N3CCNCC3)ccc2c1 [QUIPAZINE] | 63
